From paper PMC5559406, “A human PET study of [^11C]HMS011, a potential radioligand for AMPA receptors” (EJNMMI Research, 2017) come the findings set out here.

The target of this test is T1, human AMPA receptors.
T1 construct: gene GRIA1; assay details only in supplement
Put plainly: radioligand receptor binding assay (details in supplement). To be noted: labelled compound; noncompetitive (perampanel derivative); subunit not told.

In general, Kd refers to the constant that tells how readily two partners part at equilibrium. Read a high Kd as lower affinity. In the case of `CNc1cccc(-n2cc(-c3ncccn3)cc(-c3ccccc3C#N)c2=O)c1` [[11C]HMS011, 2-(1-(3-([^11C]methylamino)phenyl)-2-oxo-5-(pyrimidin-2-yl)-1,2-dihydropyridin-3-yl) benzonitrile], the dissociation constant (Kd) was ~15 nM.
